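Following 48 hours of exposure in 96-well plates, responses at five concentrations were used to interpolate endpoints linearly. Abbreviation: GI50, concentration required for 50% inhibition of growth.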 Active and inactive are the calls of the source. Cut-off read from the data, not from the text of the source: active = GI50 up to about 1.1 µM and inactive = higher.
What was measured:
Assay in all cases: NCI anticancer screen, dose series, 48 h
A498 = tested on: A498
A549 = tested on: A549
BT-549 = tested on: BT-549
CCRF-CEM = tested on: CCRF-CEM
COLO 205 = tested on: COLO 205
EKVX = tested on: EKVX
KM12 = tested on: KM12
LOX IMVI = tested on: LOX IMVI
MDA-MB-231 = tested on: MDA-MB-231
MDA-MB-435 = tested on: MDA-MB-435
MDA-N = tested on: MDA-N
Malme-3M = tested on: Malme-3M
OVCAR-3 = tested on: OVCAR-3
OVCAR-5 = tested on: OVCAR-5
SK-MEL-5 = tested on: SK-MEL-5
SNB-19 = tested on: SNB-19
SW-620 = tested on: SW-620
UACC-62 = tested on: UACC-62
HCC 2998 = tested on: HCC 2998

Measured: GI50

C[N+]12C=CC=C1C(N1CCCC1)c1scc(-c3ccc(F)cc3)c12 (centres undefined)
inactive: A498 43.3 µM | A549 56 µM | BT-549 4.89 µM | CCRF-CEM 1.89 µM | COLO 205 18.7 µM | EKVX 92.3 µM | KM12 23.8 µM | LOX IMVI 40.8 µM | MDA-MB-231 42.2 µM | MDA-MB-435 30.6 µM | MDA-N 17.1 µM | Malme-3M 60.4 µM | OVCAR-3 14.6 µM | OVCAR-5 32.4 µM | SK-MEL-5 13.5 µM | SNB-19 15.1 µM | SW-620 68.2 µM | UACC-62 35.4 µM

COC(=O)[C@@H]1C=C[C@@H](C#N)n2c(=O)n(-c3ccccc3)c(=O)n21
inactive: A498 41.1 µM | BT-549 34 µM | CCRF-CEM 25.9 µM | COLO 205 40.3 µM | EKVX 35.5 µM | HCC 2998 33.3 µM | KM12 28.8 µM | LOX IMVI 10.6 µM | MDA-MB-231 19.7 µM | MDA-MB-435 42 µM | OVCAR-3 13.9 µM | OVCAR-5 29.4 µM | SK-MEL-5 46.3 µM | SNB-19 > 100 µM | SW-620 41.9 µM | UACC-62 36.6 µM

Cc1cnc(Cl)nc1C(C#N)c1nc2ccccc2n1C (centres undefined)
inactive: A498 > 100 µM | A549 62.5 µM | BT-549 > 100 µM | COLO 205 > 100 µM | EKVX 6.31 µM | KM12 > 100 µM | LOX IMVI 34.1 µM | MDA-MB-231 > 100 µM | MDA-MB-435 > 100 µM | MDA-N > 100 µM | Malme-3M > 100 µM | OVCAR-3 > 100 µM | OVCAR-5 64.3 µM | SK-MEL-5 > 100 µM | SNB-19 41.6 µM | SW-620 > 100 µM

CC(=O)c1nc2ccccc2n1C(C)C(=O)c1ccccc1 (centres undefined)
inactive: A498 > 100 µM | A549 27.1 µM | BT-549 52 µM | CCRF-CEM 39.6 µM | COLO 205 > 100 µM | EKVX > 100 µM | KM12 58.3 µM | LOX IMVI 34.3 µM | MDA-MB-231 36.1 µM | MDA-MB-435 52.7 µM | MDA-N 54.1 µM | Malme-3M 50.2 µM | OVCAR-3 41.8 µM | SNB-19 77.6 µM | SW-620 43.7 µM | UACC-62 33 µM

CCOc1c(OC)cc(C2c3cc4c(c(OCC)c3CC3COC(=O)C32)OCO4)cc1OC (centres undefined)
inactive: A498 10.9 µM | A549 2.86 µM | BT-549 2.7 µM | CCRF-CEM 2.67 µM | COLO 205 2.22 µM | EKVX 12.7 µM | LOX IMVI 1.67 µM | MDA-MB-231 2.17 µM | Malme-3M 11.1 µM | OVCAR-5 3.24 µM | SK-MEL-5 1.63 µM | SNB-19 3.65 µM | SW-620 1.24 µM
active: KM12 0.962 µM | MDA-MB-435 0.272 µM | OVCAR-3 1.12 µM | UACC-62 0.365 µM

C=C1C[C@H](O)[C@H](Br)C(C)(C)C12CCC(C)(Cl)C(Br)C2 (some centres undefined)
active: A549 0.566 µM | CCRF-CEM 0.0359 µM | COLO 205 1.02 µM | EKVX 0.286 µM | OVCAR-5 0.762 µM
inactive: BT-549 7.53 µM | HCC 2998 5.52 µM | KM12 1.48 µM | LOX IMVI 10 µM | MDA-MB-231 2.72 µM | MDA-MB-435 2.3 µM | MDA-N 1.39 µM | Malme-3M 5.87 µM | OVCAR-3 4.3 µM | SK-MEL-5 3.04 µM | SNB-19 1.23 µM | SW-620 4.99 µM | UACC-62 5.85 µM

Cc1ccc(S(=O)(=O)NC(=O)NC(C(=O)O)C(C)C)cc1 (centres undefined)
inactive: A549 > 100 µM | BT-549 > 100 µM | CCRF-CEM > 100 µM | COLO 205 > 100 µM | KM12 > 100 µM | LOX IMVI > 100 µM | MDA-MB-231 > 100 µM | MDA-N > 100 µM | Malme-3M > 100 µM | OVCAR-5 > 100 µM | SK-MEL-5 > 100 µM | SNB-19 > 100 µM | SW-620 > 100 µM | UACC-62 > 100 µM

CN1CC[C@]23c4c5ccc(O)c4O[C@H]2C(O)CC[C@@]3(O)[C@H]1C5 (some centres undefined)
inactive: A498 > 100 µM | A549 > 100 µM | BT-549 > 100 µM | COLO 205 > 100 µM | EKVX > 100 µM | KM12 > 100 µM | LOX IMVI > 100 µM | MDA-MB-231 > 100 µM | MDA-MB-435 > 100 µM | MDA-N > 100 µM | Malme-3M > 100 µM | OVCAR-3 > 100 µM | OVCAR-5 > 100 µM | SK-MEL-5 > 100 µM | SNB-19 > 100 µM | SW-620 > 100 µM | UACC-62 > 100 µM

O=C1CN(c2cccc(Cl)c2)C(=O)CN1NCNN1CC(=O)N(c2cccc(Cl)c2)CC1=O
inactive: A498 > 100 µM | A549 > 100 µM | BT-549 > 100 µM | CCRF-CEM > 100 µM | COLO 205 > 100 µM | EKVX > 100 µM | HCC 2998 > 100 µM | KM12 > 100 µM | MDA-MB-435 > 100 µM | MDA-N > 100 µM | Malme-3M > 100 µM | OVCAR-3 > 100 µM | OVCAR-5 > 100 µM | SK-MEL-5 > 100 µM | SNB-19 > 100 µM | SW-620 > 100 µM | UACC-62 > 100 µM

Cc1sc2nc3n(sc4nc5sc(C)c(C)c5c(=O)n43)c(=O)c2c1C
inactive: A549 > 100 µM | BT-549 70.5 µM | CCRF-CEM 16.4 µM | COLO 205 > 100 µM | EKVX 30.3 µM | HCC 2998 > 100 µM | KM12 > 100 µM | LOX IMVI > 100 µM | MDA-MB-231 80.5 µM | MDA-MB-435 > 100 µM | MDA-N > 100 µM | OVCAR-3 > 100 µM | OVCAR-5 > 100 µM | SK-MEL-5 > 100 µM | SNB-19 > 100 µM | SW-620 45.9 µM | UACC-62 33.2 µM

CCOC(=O)c1nc2ccccc2nc1Oc1ccc(C(=O)OC)cc1
inactive: A498 > 100 µM | A549 > 100 µM | BT-549 > 100 µM | CCRF-CEM 41.8 µM | COLO 205 > 100 µM | EKVX > 100 µM | KM12 > 100 µM | LOX IMVI > 100 µM | MDA-MB-231 > 100 µM | MDA-MB-435 > 100 µM | MDA-N > 100 µM | Malme-3M > 100 µM | OVCAR-3 > 100 µM | OVCAR-5 > 100 µM | SK-MEL-5 > 100 µM | SNB-19 > 100 µM | SW-620 > 100 µM | UACC-62 > 100 µM

CC(=O)OCC1OC(n2c3c(c(-c4cccc5ccccc45)c(C#N)c2=S)CCCC3)C(OC(C)=O)C(OC(C)=O)C1OC(C)=O (centres undefined)
inactive: A498 > 100 µM | A549 > 100 µM | CCRF-CEM > 100 µM | COLO 205 > 100 µM | EKVX 25.8 µM | HCC 2998 > 100 µM | KM12 > 100 µM | LOX IMVI > 100 µM | MDA-MB-231 > 100 µM | MDA-MB-435 > 100 µM | MDA-N > 100 µM | Malme-3M > 100 µM | OVCAR-3 > 100 µM | OVCAR-5 > 100 µM | SK-MEL-5 > 100 µM | SNB-19 > 100 µM | SW-620 > 100 µM | UACC-62 > 100 µM

Nn1c(CCCCCCCCc2nnc(COc3ccc4ccccc4c3O)n2N)nnc1COc1ccc2ccccc2c1O
inactive: A498 35.8 µM | A549 25.1 µM | BT-549 22.1 µM | COLO 205 19.5 µM | EKVX 43.7 µM | HCC 2998 25.2 µM | KM12 18.7 µM | MDA-MB-231 23.2 µM | MDA-MB-435 29.9 µM | Malme-3M 4.48 µM | OVCAR-5 14.2 µM | SK-MEL-5 20.1 µM | SNB-19 30 µM | SW-620 52.7 µM | UACC-62 26.4 µM

OCC1OC(Oc2cc(O)cc(/C=C\c3ccc(O)cc3)c2)C(O)C(O)C1O (centres undefined)
inactive: A498 > 100 µM | A549 > 100 µM | BT-549 > 100 µM | CCRF-CEM > 100 µM | EKVX > 100 µM | KM12 > 100 µM | LOX IMVI > 100 µM | MDA-MB-231 > 100 µM | MDA-MB-435 > 100 µM | MDA-N > 100 µM | OVCAR-3 > 100 µM | OVCAR-5 > 100 µM | SK-MEL-5 > 100 µM | SNB-19 > 100 µM | SW-620 > 100 µM | UACC-62 > 100 µM

CN1C(=O)C2(Cc3cn(C45CC67SSC(CO)(C(=O)N6C4Nc4ccccc45)N(C)C7=O)c4ccccc34)SSC1(CO)C(=O)N2C (centres undefined)
active: A498 0.0291 µM | A549 0.172 µM | COLO 205 < 0.01 µM | EKVX 0.0282 µM | HCC 2998 0.0229 µM | KM12 0.139 µM | LOX IMVI 0.0114 µM | MDA-MB-231 0.0133 µM | MDA-MB-435 0.0335 µM | MDA-N 0.0198 µM | Malme-3M < 0.01 µM | OVCAR-3 0.0163 µM | OVCAR-5 0.12 µM | SK-MEL-5 0.1 µM | SNB-19 0.271 µM | SW-620 0.0108 µM | UACC-62 0.0239 µM
inactive: CCRF-CEM 1.52 µM

CC(C)=CC[C@]12CCN[C@H]1N(S(=O)(=O)c1ccccc1)c1ccccc12
inactive: A549 19.9 µM | BT-549 17.1 µM | CCRF-CEM 23.6 µM | COLO 205 15.1 µM | EKVX 8.17 µM | HCC 2998 16.7 µM | KM12 22 µM | LOX IMVI 15.9 µM | MDA-MB-231 19 µM | MDA-MB-435 16.3 µM | MDA-N 15.2 µM | Malme-3M 16.3 µM | OVCAR-3 16.9 µM | OVCAR-5 > 100 µM | SK-MEL-5 14.9 µM | SNB-19 21.5 µM | SW-620 18.4 µM | UACC-62 13.2 µM

Source: ChEMBL document CHEMBL1201862, “PubChem BioAssay data set” (2004)
